# Measured values as given in ChEMBL document CHEMBL3808348, “Rational Design, Synthesis, and Biological Evaluation of 7-Azaindole Derivatives as Potent Focused Multi-Targeted Kinase Inhibitors” (J Med Chem, 2016).
# Legend:
# [1] = test system: Tyrosine-protein kinase ABL1 (Homo sapiens), P00519 [E255K]; assay: Inhibition of His-tagged full length human recombinant ABL E255K mutant expressed in baculovirus using Fluorescein-Poly GT as substrate at 100 nM
# [2] = molecular target: Tyrosine-protein kinase Yes (Homo sapiens, UniProt P07947); assay: Inhibition of GST-tagged full length human recombinant YES expressed in baculovirus using Fluorescein-Poly GT as substrate at 100 nM
# [3] = Antiangiogenic activity in HRMEC after 72 hrs by MTT assay; assay type: functional, Homo sapiens
# [4] = molecular target: Ephrin type-A receptor 1 (Homo sapiens) (UniProt P21709); details: 100 nM
# Description: Inhibition of GST-tagged human recombinant EPHA1 (568 to 976 residues) expressed in baculovirus using Fluorescein-Poly GT as substrate at 100 nM
# [5] = molecular target: Ephrin type-B receptor 4 (Homo sapiens) (UniProt P54760); details: 100 nM
# Description: Inhibition of His-tagged human recombinant EPHB4 (561 to 987 residues) expressed in baculovirus using Fluorescein-Poly GT as substrate at 100 nM
# [6] = molecular target: Tyrosine-protein kinase ITK/TSK (Homo sapiens) (UniProt Q08881); details: 100 nM
# Description: Inhibition of GST-tagged full length human recombinant ITK expressed in baculovirus using Fluorescein-Poly GT as substrate at 100 nM
# Homo sapiens = organism: Homo sapiens; details: 100 nM
# Description: Inhibition of CK1 (unknown origin) at 100 nM
# [7] = molecular target: Macrophage colony-stimulating factor 1 receptor (Homo sapiens) (UniProt P07333); details: 100 nM
# Description: Inhibition of His-tagged human recombinant CSF1R (538 to 910 residues) expressed in baculovirus using Fluorescein-Poly GT as substrate at 100 nM
# [8] = test system: Tyrosine-protein kinase ABL1 (Homo sapiens), P00519 [Y253F]; assay: Inhibition of His-tagged full length human recombinant ABL Y253F mutant expressed in baculovirus using Fluorescein-Poly GT as substrate at 100 nM
# [9] = molecular target: NUAK family SNF1-like kinase 1 (Homo sapiens) (UniProt O60285); details: 100 nM
# Description: Inhibition of NUAK1 (unknown origin) at 100 nM
# MDA-MB-231 = assay: Antiproliferative activity against human MDA-MB-231 cells after 72 hrs by MTT assay; assay type: functional, cell-based; details: MDA-MB-231, 72 h
# [10] = molecular target: Tyrosine-protein kinase Lyn (Homo sapiens, UniProt P07948); assay: Inhibition of GST-tagged full length human recombinant LYNA expressed in baculovirus using Fluorescein-Poly GT as substrate
# HUVEC = assay: Antiangiogenic activity in HUVEC after 72 hrs by MTT assay; assay type: functional, cell-based; details: Homo sapiens
# [11] = molecular target: Tyrosine-protein kinase ABL1 (Homo sapiens, UniProt P00519, G250E); assay: Inhibition of His-tagged full length human recombinant ABL G250E mutant expressed in baculovirus using Fluorescein-Poly GT as substrate
# [12] = molecular target: Proto-oncogene tyrosine-protein kinase Src (Homo sapiens, UniProt P12931); assay: Inhibition of full length His-tagged human recombinant cSRC expressed in baculovirus using Fluorescein-Poly GT as substrate at 100 nM
# [13] = molecular target: Protein kinase C theta type (Homo sapiens) (UniProt Q04759); details: 100 nM
# Chain of Protein kinase C theta type (Homo sapiens) (Q04759 whole entry, looked up): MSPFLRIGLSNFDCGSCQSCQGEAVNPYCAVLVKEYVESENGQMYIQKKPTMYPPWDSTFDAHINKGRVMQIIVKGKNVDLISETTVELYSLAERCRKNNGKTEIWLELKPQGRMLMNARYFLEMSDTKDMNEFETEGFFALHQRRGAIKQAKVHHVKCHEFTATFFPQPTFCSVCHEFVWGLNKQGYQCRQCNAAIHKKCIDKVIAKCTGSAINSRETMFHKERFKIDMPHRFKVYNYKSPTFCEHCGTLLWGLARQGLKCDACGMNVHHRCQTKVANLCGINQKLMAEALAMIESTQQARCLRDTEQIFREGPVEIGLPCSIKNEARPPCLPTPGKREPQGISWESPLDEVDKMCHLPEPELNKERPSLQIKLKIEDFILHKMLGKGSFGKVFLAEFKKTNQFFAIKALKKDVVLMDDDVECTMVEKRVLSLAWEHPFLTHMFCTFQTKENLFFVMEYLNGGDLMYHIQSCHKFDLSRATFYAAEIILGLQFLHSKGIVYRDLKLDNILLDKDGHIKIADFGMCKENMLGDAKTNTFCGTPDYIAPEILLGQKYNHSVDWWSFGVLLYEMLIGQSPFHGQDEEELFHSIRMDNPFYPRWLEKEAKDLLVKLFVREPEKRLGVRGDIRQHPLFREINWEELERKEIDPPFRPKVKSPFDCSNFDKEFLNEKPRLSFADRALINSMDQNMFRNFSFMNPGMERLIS
# Description: Inhibition of full length His-tagged human recombinant PKCtheta expressed in baculovirus using Fluorescein-PKC as substrate at 100 nM
# Chain of Tyrosine-protein kinase ITK/TSK (Homo sapiens) (Q08881 whole entry): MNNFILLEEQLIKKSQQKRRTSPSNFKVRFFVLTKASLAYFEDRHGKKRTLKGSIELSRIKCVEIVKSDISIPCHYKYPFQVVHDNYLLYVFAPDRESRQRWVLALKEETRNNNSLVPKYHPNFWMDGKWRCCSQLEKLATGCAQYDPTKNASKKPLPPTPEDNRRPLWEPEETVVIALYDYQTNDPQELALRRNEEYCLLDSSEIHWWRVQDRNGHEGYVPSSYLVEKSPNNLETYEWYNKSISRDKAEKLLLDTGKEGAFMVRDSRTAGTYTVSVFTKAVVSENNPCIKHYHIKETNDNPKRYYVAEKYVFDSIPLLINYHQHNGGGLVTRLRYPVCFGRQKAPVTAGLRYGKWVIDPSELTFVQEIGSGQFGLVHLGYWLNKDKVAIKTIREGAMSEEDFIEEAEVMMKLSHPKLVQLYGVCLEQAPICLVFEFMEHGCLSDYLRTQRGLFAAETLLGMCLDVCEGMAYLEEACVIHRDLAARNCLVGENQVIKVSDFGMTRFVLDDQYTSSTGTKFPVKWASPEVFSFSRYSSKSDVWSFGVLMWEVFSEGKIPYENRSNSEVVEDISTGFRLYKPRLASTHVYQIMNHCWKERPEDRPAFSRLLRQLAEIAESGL
# Chain of Tyrosine-protein kinase Yes (P07947 2-543 limits assumed): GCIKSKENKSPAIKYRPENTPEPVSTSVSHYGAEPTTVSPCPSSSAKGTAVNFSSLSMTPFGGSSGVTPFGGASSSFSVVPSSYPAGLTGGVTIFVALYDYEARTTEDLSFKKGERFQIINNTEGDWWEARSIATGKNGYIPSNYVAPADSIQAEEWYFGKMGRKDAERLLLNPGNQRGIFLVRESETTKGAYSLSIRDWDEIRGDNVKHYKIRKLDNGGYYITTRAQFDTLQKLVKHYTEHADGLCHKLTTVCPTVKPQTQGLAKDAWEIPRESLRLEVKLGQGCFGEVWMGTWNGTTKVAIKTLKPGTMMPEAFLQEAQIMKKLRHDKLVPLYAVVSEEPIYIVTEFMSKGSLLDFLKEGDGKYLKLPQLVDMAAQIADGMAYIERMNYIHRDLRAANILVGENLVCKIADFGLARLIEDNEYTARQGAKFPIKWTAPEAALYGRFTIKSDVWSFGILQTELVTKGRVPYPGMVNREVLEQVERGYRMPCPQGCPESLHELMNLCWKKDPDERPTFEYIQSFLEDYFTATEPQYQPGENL
# Chain of Macrophage colony-stimulating factor 1 receptor (Homo sapiens) (P07333 whole entry): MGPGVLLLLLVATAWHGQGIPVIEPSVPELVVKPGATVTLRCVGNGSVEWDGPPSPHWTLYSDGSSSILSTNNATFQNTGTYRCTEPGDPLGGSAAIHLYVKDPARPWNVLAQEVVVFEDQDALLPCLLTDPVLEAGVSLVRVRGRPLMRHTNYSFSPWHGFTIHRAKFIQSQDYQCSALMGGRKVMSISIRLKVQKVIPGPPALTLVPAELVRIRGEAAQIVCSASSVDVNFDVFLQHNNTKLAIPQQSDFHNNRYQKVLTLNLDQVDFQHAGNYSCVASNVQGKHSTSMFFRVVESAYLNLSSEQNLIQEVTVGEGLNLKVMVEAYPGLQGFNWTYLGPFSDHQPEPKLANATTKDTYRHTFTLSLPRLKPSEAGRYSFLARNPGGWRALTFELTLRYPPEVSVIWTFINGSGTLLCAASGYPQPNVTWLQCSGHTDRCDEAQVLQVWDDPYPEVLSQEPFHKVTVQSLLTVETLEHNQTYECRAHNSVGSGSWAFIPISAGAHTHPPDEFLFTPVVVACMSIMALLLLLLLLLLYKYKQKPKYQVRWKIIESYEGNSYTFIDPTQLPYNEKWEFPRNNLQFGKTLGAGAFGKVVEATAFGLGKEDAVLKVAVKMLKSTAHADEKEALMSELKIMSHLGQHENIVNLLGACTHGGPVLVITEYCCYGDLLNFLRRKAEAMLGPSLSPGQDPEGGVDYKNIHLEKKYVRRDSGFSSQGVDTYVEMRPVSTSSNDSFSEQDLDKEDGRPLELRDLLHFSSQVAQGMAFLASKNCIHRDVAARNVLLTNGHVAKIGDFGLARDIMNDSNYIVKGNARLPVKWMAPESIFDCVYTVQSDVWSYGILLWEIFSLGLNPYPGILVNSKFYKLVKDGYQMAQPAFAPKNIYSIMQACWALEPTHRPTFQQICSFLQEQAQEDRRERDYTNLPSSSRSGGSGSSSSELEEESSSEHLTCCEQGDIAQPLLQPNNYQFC
# Chain of Proto-oncogene tyrosine-protein kinase Src (P12931 2-536 limits assumed): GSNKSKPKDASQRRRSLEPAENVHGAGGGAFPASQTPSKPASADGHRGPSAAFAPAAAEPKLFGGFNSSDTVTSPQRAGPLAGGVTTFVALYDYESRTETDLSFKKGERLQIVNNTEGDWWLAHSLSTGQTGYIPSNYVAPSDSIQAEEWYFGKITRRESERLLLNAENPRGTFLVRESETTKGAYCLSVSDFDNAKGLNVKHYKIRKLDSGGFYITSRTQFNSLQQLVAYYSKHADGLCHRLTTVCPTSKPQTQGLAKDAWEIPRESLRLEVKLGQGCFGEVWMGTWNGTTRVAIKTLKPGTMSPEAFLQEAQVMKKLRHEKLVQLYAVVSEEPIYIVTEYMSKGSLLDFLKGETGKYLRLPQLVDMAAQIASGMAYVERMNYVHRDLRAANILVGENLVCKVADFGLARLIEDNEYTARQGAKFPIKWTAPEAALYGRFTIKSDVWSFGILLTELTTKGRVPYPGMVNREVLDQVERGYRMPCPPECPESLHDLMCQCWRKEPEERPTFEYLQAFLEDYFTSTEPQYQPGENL
# Chain of Tyrosine-protein kinase Lyn (P07948 whole entry): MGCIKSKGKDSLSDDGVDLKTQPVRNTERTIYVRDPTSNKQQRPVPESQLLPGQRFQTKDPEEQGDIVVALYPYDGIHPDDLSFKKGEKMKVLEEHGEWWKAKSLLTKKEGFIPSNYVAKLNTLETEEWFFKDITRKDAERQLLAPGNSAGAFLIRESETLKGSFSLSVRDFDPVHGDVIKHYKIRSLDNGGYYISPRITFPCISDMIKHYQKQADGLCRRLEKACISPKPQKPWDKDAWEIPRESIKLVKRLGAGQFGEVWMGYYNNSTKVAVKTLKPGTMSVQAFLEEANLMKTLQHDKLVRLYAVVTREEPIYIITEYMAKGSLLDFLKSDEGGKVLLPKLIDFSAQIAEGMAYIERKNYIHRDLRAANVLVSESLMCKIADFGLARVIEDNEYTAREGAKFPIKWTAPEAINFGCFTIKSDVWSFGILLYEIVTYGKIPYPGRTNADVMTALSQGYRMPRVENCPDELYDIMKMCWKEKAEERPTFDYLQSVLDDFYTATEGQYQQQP
# Chain of NUAK family SNF1-like kinase 1 (Homo sapiens) (O60285 whole entry): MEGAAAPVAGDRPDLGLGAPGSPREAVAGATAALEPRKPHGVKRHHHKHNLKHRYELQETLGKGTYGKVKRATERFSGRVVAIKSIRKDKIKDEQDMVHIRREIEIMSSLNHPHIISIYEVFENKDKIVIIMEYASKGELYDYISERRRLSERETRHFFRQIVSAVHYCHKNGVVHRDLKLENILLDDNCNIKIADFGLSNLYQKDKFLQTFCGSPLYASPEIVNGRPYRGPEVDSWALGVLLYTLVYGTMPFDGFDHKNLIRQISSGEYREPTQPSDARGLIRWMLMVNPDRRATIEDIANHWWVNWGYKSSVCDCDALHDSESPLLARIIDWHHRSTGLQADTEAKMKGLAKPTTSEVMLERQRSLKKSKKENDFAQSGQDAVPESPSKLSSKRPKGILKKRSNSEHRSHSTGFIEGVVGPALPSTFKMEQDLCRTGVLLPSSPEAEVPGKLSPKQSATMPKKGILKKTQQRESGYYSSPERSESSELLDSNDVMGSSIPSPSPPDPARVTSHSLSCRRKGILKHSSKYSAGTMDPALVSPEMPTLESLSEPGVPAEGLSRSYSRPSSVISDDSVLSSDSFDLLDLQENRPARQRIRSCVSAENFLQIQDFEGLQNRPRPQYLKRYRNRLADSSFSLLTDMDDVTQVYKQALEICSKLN
structure (smiles),measurement,setting,value
COC(=O)c1cc2cc(NCc3cc(NC(=O)c4cc(-n5cnc(C)c5)cc(C(F)(F)F)c4)ccc3C)cnc2[nH]1,inhibition,[1],> 80%
same,inhibition,[2],> 80%
same,EC50,[3],62 nM
same,inhibition,[4],< 40%
same,inhibition,[5],< 40%
same,inhibition,[6],< 40%
same,inhibition,Homo sapiens,< 40%
same,inhibition,[7],< 40%
same,inhibition,[8],> 80%
same,inhibition,[9],< 40%
same,EC50,MDA-MB-231,158 nM
same,IC50,[10],37 nM
same,EC50,HUVEC,34 nM
same,IC50,[11],46 nM
same,inhibition,[12],49%
same,inhibition,[13],< 40%
